Measured values as given in patent US20080161247A1, “Synergistic composition for modulating activity of substrate analogs for NAD+, NADP+, NADH or NADPH dependent enzymes and process thereof” (priority 2006, published 2008).
Like-named read-outs stand apart in the source and are kept apart here.

Legend:
[1] = biological target: T1, human aldose reductase (ALR2) (Homo sapiens, UniProt P15121); experiment: Fluorescence quenching dissociation constants with aldose reductase; format: binding
T1 construct: hexa-His (cleaved yes); made in house; host or cells: E. coli BL-21(DE3)
Experimental: The cloning of human ALR2 gene was done as described before with slight modification. In brief, the open reading frame of the human AR2 gene (Accession GenBank/EMBL Data Bank number J05017) was amplified by the polymerase chain reaction from its cDNA and cloned into the T7 RNA polymerase-based vector pET28a(+) vector (Novagen). The positive clone was sequenced and then transformed into BL-21(DE3) cells for expression. The culture (5 L) was grown at 37° C. till OD600 of 0.8, induced by 1 mM IPTG and grown further at 37° C. for next 3 h. The cells were pelleted, sonicated and the clear supernatant was loaded to Ni-NTA resin. The purified hexa-His tagged human AR2 was subjected to thrombin cleavage and loaded […]. The His-tag cleaved AR2 was further loaded on DEAE Sephadex A-50 column (Pharmacia) and eluted with an NaCl gradient. The purity of the final enzyme preparation was checked on 12% SDS-PAGE.
Ki in all the four cased were calculated strictly using equations mentioned in Example 11.

PfENR [2] = biological target: T2, PfENR (Plasmodium falciparum, UniProt Q9BH77); format: biochemical; settings: triclosan with PfENR in presence of the catechin
T2 construct: The overexpression of PfENR was carried out [22]; made in house
Experimental: The reaction was started by the addition of 50 nM of PfENR.
The reaction was monitored at 340 nm and the formation of (NAD^+) was plotted as a function of time using equation 3 to get the dissociation constant by non-linear regression analysis of the data.
Progress curves gave the value of kobs and the k5 or association rate constants were determined by fitting the values of kobs with experimentally determined k6 values in equation 4.
The relationship between Ki, k5, k6 and kobs is described by equation 4.
The overall inhibition constant Ki* is calculated by equation 5.

P. falciparum culture = experiment: Growth inhibition assay, [3H] hypoxanthine incorporation; format: cell-based, Plasmodium falciparum
Source text: Culture media with or without inhibitors was changed daily. Parasites were synchronized at the ring stage with 5% D-sorbitol for all and the cultures were pooled at ring or trophozoite stage with 12-15% parasitemia. Free parasites were released from the red blood cells with 0.15% saponin.
The growth of P. falciparum was quantified by measuring the incorporation of [^3H] hypoxanthine.

[3] = biological target: T3, Plasmodium falciparum enoyl-Acyl carrier protein (ACP) reductase (PfENR) (Plasmodium falciparum, UniProt Q9BH77); experiment: biochemical; settings: for Ki: Dixon plot
T3 sequence (Q9BH77 22-432): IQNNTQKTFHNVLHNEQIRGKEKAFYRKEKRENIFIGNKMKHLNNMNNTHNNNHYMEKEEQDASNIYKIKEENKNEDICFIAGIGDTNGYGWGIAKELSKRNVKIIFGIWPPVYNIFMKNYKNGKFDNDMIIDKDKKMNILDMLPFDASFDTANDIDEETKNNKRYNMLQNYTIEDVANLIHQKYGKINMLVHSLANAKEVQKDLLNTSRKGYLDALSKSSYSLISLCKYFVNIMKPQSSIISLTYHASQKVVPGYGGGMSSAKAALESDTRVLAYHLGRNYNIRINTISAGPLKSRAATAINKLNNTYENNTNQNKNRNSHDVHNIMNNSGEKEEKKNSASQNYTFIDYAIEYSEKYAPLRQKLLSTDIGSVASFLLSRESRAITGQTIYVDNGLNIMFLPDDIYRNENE
Experimental: Enzyme assays and inhibition studies were performed on a UV-Vis spectrophotometer (Jasco) at 25° C. in 20 mM Tris/HCl pH 7.4 containing 150 mM NaCl [13, 14]. The standard reaction mixture of 100 μl contained 200 μM crotonoyl-CoA, 100 μM NADH and 30 nM PfENR. All the inhibitors were dissolved in DMSO. 1% V/V DMSO was used in the standard reaction mixture. The reaction proceeds by reduction of crotonoyl-CoA to butyl-CoA with the oxidation of NADH to NAD^+ which is monitored at 340 nm (□∈^M340=6220 M−1 cm−1).
IC50 values of the tea catechins and polyphenolic compounds for PfENR were determined by plotting the percent inhibition of PfENR at various concentrations of inhibitory compounds. […] The percent activity thus calculated was plotted against log of concentration of respective catechins. The data was analyzed by nonlinear regression method using sigmoidal model and IC50 values for each catechin was calculated from the sigmoidal curve.
The sigmoidal curve indicates the best fit for the data.
Ki of individual catechins with respect to NADH and crotonoyl-CoA were determined in separate experiments. […] All the data were analyzed by Dixon plot [8].
All the data of individual experiments were repeated thrice and the mean value was taken for data analysis. The Ki values were determined for each experiment from the X-intercept of the Dixon plot [8].
The data were plotted using the following Dixon equations for competitive and uncompetitive kinetics, respectively.

[4] = test system: fatty acid synthesis in P. falciparum cultures; experiment: Incorporation of [14C] acetate into fatty acids in P. falciparum cultures; format: cell-based; settings: Plasmodium falciparum
Experimental: Fatty acid synthesis in P. falciparum cultures and the effect of a 2′-dihydroxyphenyl ether indicated in formula 1 and 2 with or without flavonoid was evaluated by incorporating [14C] acetate into fatty acids [Surolia and Surolia Nature Medicine, (2001) 7, 167-173].

P. berghei = experiment: Four day suppressive test, survival of P. berghei infected mice; format: in vivo, P. berghei in Balb/c mice; settings: P. berghei infected Balb/c mice; triclosan 20 mg/kg, EGCG 30 mg/kg, 4 days
Experimental: Randomly bred male Balb/c mice, 6 in numbers, weighing 22-25 grams were inoculated intravenously with 10 million P. berghei parasitized red blood cells. […] Giemsa-stained blood smears for 5 days and thereafter was prepared from the infected animals to assess percentage parasitemia. The survival of the mice was monitored for the following week.

E. coli O55:B5 = experiment: Survival of mice post bacterial infection; format: in vivo, E. coli in BALB/c mice; settings: BALB/c mice, 10^7 CFU E. coli O55:B5, D-galactosamine primed; triclosan 40 mg/kg, EGCG 50 mg/kg
Experimental: Agents and Chemother. 12, 3859-3866 (2003) which is detailed below:—
Third group of animals received injections of both Triclosnan and ECGC as above. Controlled group was injected PBS and/or ethanol (500 μl).
For each experiment 6 BALB/c male mice, 6-9 week of age per group were used.
Infection of animals by bacteria: The animals were injected i.p or s.c with 0.4 ml of pyrogen free saline containing 10^7 CFU of bacteria (E. coli O55:B5) and primed with D-galactosamine (300 mg/kg of body weight); (Galanos at al. (1979) Proc. Natl. Acad. Sci. USA, 76, 5939-5943).
The mice was monitored for survival on an hourly basis.

PfENR [5] = biological target: T2, PfENR; format: binding; settings: equation 7
Experimental: The excitation and emission monochromator slit widths were adjusted at 3 nm. All the reactions were performed in 3 ml quartz cuvette with constant stirring at 25° C. For the binding studies, 4 μM PfENR was incubated with different tea compounds at their saturating concentrations in 20 mM tris and 150 mM NaCl, pH 7.4, excited at 295 nm and change in the fluorescence intensity at the emission maximum of PfENR (340 nm) was recorded.
For tight binding inhibitors k6 can be considered negligible at the early onset of inhibition. So, k5 can be directly calculated from the following equation [13],
The samples were excited at 290 nm and the emission was recorded at 340 nm.
Before calculating Ki and k5 from fluorescence data, the corrections for inner filter effect were made using equation 8.

PfENR [6] = biological target: T2, PfENR; format: binding; settings: 1 μM [3H]EGCG
Experimental: Binding studies of [^3H] […] Briefly, for gel filtration chromatography, 2 ml Sephadex G-25 column was packed and equilibrated with the reaction buffer. For each run 50 μl of the reaction mixture was loaded and 20 fractions of 100 μl were collected at 0.25 ml/min flow rate. All the fractions were spotted on Whatman 3 filter paper and dried before taking the counts. In the filter binding assay method, the reaction mixtures were directly applied on the activated Polyvinylidene difluoride (PVDF) membrane fixed in a filtration assembly. The filters were washed with 200 μl of reaction buffer and dried. Dried filters were transferred to vials containing 5 ml scintillation fluid and the radioactivity measured using a Hewlett Packard liquid scintillation counter.
To check the binding of [^3H] […] The concentration of [^3H]
[^3H] […] (FIG. 4d) Double reciprocal plot of the same data is shown in the inset.
The binding constants for the above experiments were determined from saturation plots and by Scatchard plot or double reciprocal plot using equation 2a and 2b described under evaluation section.

[7] = binary complex, read-out: Ki with ALR2
[8] = Plasmodium falciparum, Erythrocyte, growth of malaria culture in red blood cells, read-out: IC50 on P. falciparum culture
[9] = Ki in presence of TCL [nM], Ki of the catechin at 50 nM and 100 nM triclosan
[10] = Ki w.r.t. NADH [μM], competitive, NADH 50, 100, 200 μM, crotonoyl-CoA 200 μM
[11] = Ki w.r.t. crotonoyl-CoA [μM], uncompetitive, NADH 100 μM

| Compound | Association rate constant k5 of triclosan (PfENR [2]) | IC50 (P. falciparum culture; [8]) [nM] | IC50 [3] [nM] | Ki [3, 9] [nM] | Ki [3, 10] [nM] | Ki [3, 11] [nM] | also measured |
| --- | --- | --- | --- | --- | --- | --- | --- |
| O=CC1CCCCC1 [1-Cyclohexylaldehyde] |  |  |  |  |  |  | Ki [1, 7]: 330000 ± 45000 nM; Ki ([1]; read-out: Ki value in the presence of quercetin, 2 μM quercetin preincubated): 14.1 ± 3.1 nM |
| O=C(/C=C/c1ccc(O)c(O)c1)c1ccc(O)cc1O [Buteine, butein] | 2.1 ± 0.108 [10^−3]s^−1 | 49700 | 12500 ± 670 | 14 ± 0.57 | 5500 ± 100 | 2970 ± 77 |  |
| O=C(O[C@@H]1Cc2c(O)cc(O)cc2O[C@@H]1c1ccc(O)c(O)c1)c1cc(O)c(O)c(O)c1 [ECG, (−) epicatechin gallate] | 6.3 ± 0.135 [10^−3]s^−1 |  | 500 ± 16 | 16 ± 0.45 | 291 ± 7.6 | 102 ± 4.6 | IC50 (P. falciparum culture; Plasmodium falciparum, Erythrocyte, read-out: IC50 on P. falciparum culture): 4700 nM |
| Oc1cc(O)c2c(c1)O[C@H](c1cc(O)c(O)c(O)c1)[C@H](O)C2 [EGC, (−) epigallocatechin] | 5.4 ± 0.097 [10^−3]s^−1 | 211000 | 7000 ± 85 | 17.6 ± 0.67 | 3750 ± 54 | 2000 ± 78 |  |
| O=CC(O)CO (stereo not shown) [Glyceraldehyde, glyceraldehyde] |  |  |  |  |  |  | fold decrease of Kd of glyceraldehyde by quercetin ([1]; 2 μM quercetin): more than 10 fold; Kd ([1]; Kd of glyceraldehyde in the presence of quercetin, 2 μM quercetin): 40000 nM; Ki [1, 7]: 510000 ± 54000 nM; Kd ([1]; without quercetin, read-out: Kd of glyceraldehyde with aldose reductase): 510000 nM |
| O=c1c(O)c(-c2ccc(O)c(O)c2)oc2cc(O)cc(O)c12 [Quercetin, quercetin] | 3.1 ± 0.0786 [10^−3]s^−1 | 20700 | 2500 ± 78 | 22 ± 0.85 | 1090 ± 89 | 473 ± 11 |  |
| Oc1cc(Cl)ccc1Oc1ccc(Cl)cc1Cl [Triclosan, 5-chloro-2-(2,4-dichlorophenoxy)phenol] |  |  |  |  |  |  | inhibition at 9 µM [4]: 90%; Mice surviving from a group of 6 on Day 6 (P. berghei): 3 ± 1; Mice surviving from a group of 6 on Day 12 (P. berghei): 1 ± 1; Survival Time (E. coli O55:B5): 45 ± 6 h; k5 of triclosan in presence of EGCG from slow decrease of fluorescence (PfENR [5]): 0.0072±0.84×10^−5 s^−1; Association constant of triclosan, double reciprocal plot (PfENR [6]): 14 ± 0.77 µM⁻¹; Association constant of triclosan, saturation kinetics (PfENR [6]): 22.18 ± 1.7 µM⁻¹ |
| CCN(CC)CCCC(C)Nc1ccnc2cc(Cl)ccc12 (stereo not shown) [chloroquine, reference compound] |  |  |  |  |  |  | IC50 (P. falciparum culture; Plasmodium falciparum, read-out: IC50 for chloroquine, strain MP-14): 300 nM; IC50 (P. falciparum culture; Plasmodium falciparum, read-out: IC50 of chloroquine, strain FCK2): 18 nM |
| (−) epigallocatechin gallate [EGCG] |  |  |  |  |  |  | IC50 (P. falciparum culture; growth of malaria culture in red blood cells, read-out: IC50 on P. falciparum culture): 191000 nM |
